Results taken from patent EP0355353A2, “Cycloalkylthiazole derivatives” (F. HOFFMANN-LA ROCHE AG, priority 1988, dated 1990).

Key:
Leukotriene D₄ Receptor = molecular target: T1, Leukotriene D₄ Receptor (Cavia porcellus, UniProt Q2NNR5); assay: Leukotriene D₄ Receptor Binding Assay (Guinea Pig Lung Homogenate), displacement of ³H-LTD₄; settings: guinea pig lung membrane homogenate, 3.5 nM ³H-LTD₄, 20°C, 30 minutes; read-out: LTD₄ Binding IC₅₀
T1 construct: from tissue; host or cells: guinea pig lung crude membrane fraction
T1 sequence (Q2NNR5 1-340): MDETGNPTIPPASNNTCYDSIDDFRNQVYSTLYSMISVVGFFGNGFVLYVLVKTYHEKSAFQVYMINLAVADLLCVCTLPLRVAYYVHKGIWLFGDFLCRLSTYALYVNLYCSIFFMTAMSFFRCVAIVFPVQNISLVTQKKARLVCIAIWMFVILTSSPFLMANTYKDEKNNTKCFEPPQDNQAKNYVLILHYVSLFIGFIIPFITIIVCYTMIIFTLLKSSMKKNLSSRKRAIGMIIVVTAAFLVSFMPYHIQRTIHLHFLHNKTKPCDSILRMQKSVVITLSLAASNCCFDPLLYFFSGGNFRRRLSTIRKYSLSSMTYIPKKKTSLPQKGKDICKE
Protocol: Leukotriene D₄ Receptor Binding Assay (Guinea Pig Lung Homogenate) […]
a) Preparation of membrane homogenate
Male albino guinea pigs (Hartley strain, 400-500 g body weight) were sacrificed by decapitation. The lungs were removed, frozen in liquid nitrogen and stored at -70° until use. The frozen tissue (5 g) was thawed, minced into small pieces and rinsed in phosphate-buffered saline. The tissue was placed in 40 ml homogenization buffer containing 0.25 M sucrose, 10 mM Tris-HCl, (pH 7.5), and the following protease inhibitors: soybean trypsin inhibitor (5 µg/ml) bacitracin (100 µg/ml), benzamidine (10⁻³M) and phenylmethylsulfonyl fluoride ([…]). The protease inhibitors were included to inhibit proteolysis during the processes of homogenization and centrifugation. The tissue was then homogenized at 0-4°C with a Brinkman PT-20 polytron for a total of 1 minute (10 second pulses at a setting of 6). The homogenate was centrifuged (1000 x g for 10 minutes) to remove tissue clumps, unbroken cells and nuclei. The supernatant was recentrifuged at 30,000 x g for 30 minutes to yield pellets which were referred to as crude membrane fractions. This fraction was then resuspended in the incubation buffer (10 mM Pipes buffer, pH 7.5, 50 mM NaCl), homogenized in a Teflon homogenizer and recentrifuged at 30,000 x g for 30 minutes. The pellets were finally resuspended in the incubation buffer with a Teflon homogenizer at a concentration of 10 to 20 mg/ml of protein in the suspension. The concentrations of proteins were determined using the Biorad reaction kit. […]
b) Receptor-Ligand Binding Assay
Optimum assay conditions were determined with an assay mixture containing: Tyrode solution; 0.1% bovine serum albumin (BSA); 1 mM glycine; 1 mM cysteine; 3.5 nM ³H-LTD₄ and the membrane preparation (100-200 µg protein) in a final volume of 250 µl. The incubation was carried out at 20°C for 30 minutes. At 20°C, binding increased linearly with protein concentration, reached equilibrium in 20 minutes, was saturable, and reversible upon additions of unlabelled LTD₄. Separation of bound from free ³H-LTD₄ was performed by rapid filtration on GF/C glass fiber filters and washing with two 4 ml aliquots of Tyrode solutions containing 0.1% BSA. Radioactivity remaining on the filters was measured in 10 ml of Aquasol. Specific binding was defined as that displaced by 10⁻⁶M unlabelled LTD₄ and was 95% of total binding.

[1] = system: LTD₄-Induced Bronchoconstriction; assay: Leukotriene-Induced Bronchoconstriction in Guinea Pigs - in vivo leukotriene D₄ (LTD) antagonist test, intravenous and oral testing; design: LTD₄-Induced Bronchoconstriction (ID₅₀) i.v. / LTD₄-Induced Bronchoconstriction (ID₅₀) p.o.: unit not given here; settings: for LTD₄-Induced Bronchoconstriction (ID₅₀) i.v.: intravenous route; for LTD₄-Induced Bronchoconstriction (ID₅₀) i.v. / LTD₄-Induced Bronchoconstriction (ID₅₀) p.o.: increasing doses, value in parentheses; for Duration 10 mg/kg p.o. 4 hr.: inhibition with LTD challenge 4 hr. after administration; for Duration 10 mg/kg p.o. 8 hr.: inhibition with LTD challenge 8 hr. after administration; for inhibition at 10 mg/kg / inhibition at 1 mg/kg: Cavia porcellus; for inhibition at 10 mg/kg: 2 h, two hours prior to LTD challenge (25 µg/kg i.v.); for Duration 10 mg/kg p.o. 4 hr. / Duration 10 mg/kg p.o. 8 hr. / inhibition at 10 mg/kg / Duration 10 mg/kg p.o. 18 hr.: 10 mg/kg p.o.; for inhibition at 1 mg/kg: iv, 1 mg/kg i.v., 1 minute before LTD challenge (25 µg/kg i.v.), change in tracheal pressure; for LTD₄-Induced Bronchoconstriction (ID₅₀) p.o.: oral route, two hours prior to challenge; for Duration 10 mg/kg p.o. 18 hr.: inhibition with LTD challenge 18 hr. after administration
Protocol: Leukotriene-Induced Bronchoconstriction in Guinea Pigs - In vivo leukotriene D₄ (LTD) antagonist test
Intravenous and Oral Testing
Male guinea pigs (Hartley strain Charles River) weighing 300-500 g were anesthetized with urethane (∼2 g/kg) intraperitoneally and a polyethylene cannula was inserted into the jugular vein for intravenous drug administration. Tracheal pressure (cm of H₂0) was recorded from a Statham pressure transducer (P 32 AA). Propranolol was administered 5 minutes prior to challenge with LTD. Two minutes later spontaneous breathing was arrested with succinylcholine chloride (1.2 mg/kg) administered intravenously and the animals were ventilated with a Harvard (Model #680) small animal respirator set a 40 breaths/min and 4.0 cc stroke volume. Control vehicle or test drug was administered through the cannula into the jugular vein 1 minute before the animals were challenged intravenously with a maximum constrictory dose of LTD (25 µg/kg) given intravenously. The change in tracheal pressure was averaged for control and drug-treated animals and percent inhibition was calculated. For determination of oral activity, animals were dosed with test compound or vehicle two hours prior to challenge with LTD (25 µg/kg. i.v.).
The relative potency (ID₅₀ values) of test compounds administered by the intravenous and oral route was determined by administering increasing doses of test compound. For determination of the time course of inhibition for various compounds, the time between administration of compound and challenge with LTD was varied. The time course of activity was calculated as the time when inhibition decreased to 40%.

Row | IC50 (Leukotriene D₄ Receptor) [nM] | SMILES | LTD₄-Induced Bronchoconstriction (ID₅₀) i.v. [1] | Duration 10 mg/kg p.o. 4 hr. [1] | Duration 10 mg/kg p.o. 8 hr. [1] | inhibition at 10 mg/kg [1] [%] | inhibition at 1 mg/kg [1] [%] | LTD₄-Induced Bronchoconstriction (ID₅₀) p.o. [1] | Duration 10 mg/kg p.o. 18 hr. [1]
1 | 110 | CC(CC(=O)Nc1cccc(/C=C/c2nc(C3CCC3)cs2)c1)C(=O)O (centres unmarked) [(E)-4-[[3-(2-(4-cyclobutyl-2-thiazolyl)ethenyl]phenyl]amino]-2-methyl-4-oxobutanoic acid] | (0.61) | – | – | – | – | – | –
2 | 15 | CCC(CC)(CC(=O)Nc1cccc(/C=C/c2nc(C3CCC3)cs2)c1)C(=O)O [(E)-4-[[3-[2-(4-cyclobutyl-2-thiazolyl)ethenyl]phenyl]amino]-2,2-diethyl-4-oxobutanoic acid] | 0.13 | 100±0 | 98±1 | 99 ± 1 | 98 | 0.12 | –
3 | 80 | CCC(CC)(CC(=O)Nc1cccc(/C=C/c2nc(C3CCCCC3)cs2)c1)C(=O)O [(E)-4-[[3-[2-(4-cyclohexyl-2-thiazolyl)ethenyl]phenyl]amino]-2,2-diethyl-4-oxobutanoic acid] | 0.31 | 69±12 | 81±9 | 87 ± 6 | 96 ± 2 | 0.66 | 38+4
4 | 60 | CCC(CC)(CC(=O)Nc1cccc(/C=C/c2nc(C3CCCC3)cs2)c1)C(=O)O [(E)-4-[[3-[2-(4-cyclopentyl-2-thiazolyl)ethenyl]phenyl]amino]-2,2-diethyl-4-oxobutanoic acid] | 0.08 | 99+1 | 98+1 | 97 ± 1 | 99 ± 1 | 0.34 | 70±7
5 | 20 | CCC(CC)(CC(=O)Nc1cccc(/C=C/c2nc(C3CC3)cs2)c1)C(=O)O [(E)-4-[[3-[2-(4-cyclopropyl-2-thiazolyl)ethenyl]phenyl]amino]-2,2-diethyl-4-oxobutanoic acid] | 0.18 | 99±1 | 95±1 | 98 ± 1 | 94 ± 2 | 1.1 | 61±6
6 | 4000 | O=C(O)CCC(=O)Nc1cccc(/C=C/c2nc(C3CC3)cs2)c1 [(E)-4-[[3-[2-(4-cyclopropyl-2-thiazolyl)ethenyl]phenyl]amino]-4-oxobutanoic acid] | – | – | – | – | 15 ± 4 | – | –
